# Test results published in US8318749B2, “Quinazoline derivatives as NK3 receptor antagonists” (Hoffmann-La Roche Inc., priority 2008, dated 2012).
# pKi: −log10 of the molar value.
# Molecular target: T1, recombinant human NK3 receptor (Homo sapiens, UniProt P29371)
# T1 construct: expressed in transfected cells; host or cells: HEK293 cells (transient expression), membrane preparation
# T1 sequence (P29371 1-465): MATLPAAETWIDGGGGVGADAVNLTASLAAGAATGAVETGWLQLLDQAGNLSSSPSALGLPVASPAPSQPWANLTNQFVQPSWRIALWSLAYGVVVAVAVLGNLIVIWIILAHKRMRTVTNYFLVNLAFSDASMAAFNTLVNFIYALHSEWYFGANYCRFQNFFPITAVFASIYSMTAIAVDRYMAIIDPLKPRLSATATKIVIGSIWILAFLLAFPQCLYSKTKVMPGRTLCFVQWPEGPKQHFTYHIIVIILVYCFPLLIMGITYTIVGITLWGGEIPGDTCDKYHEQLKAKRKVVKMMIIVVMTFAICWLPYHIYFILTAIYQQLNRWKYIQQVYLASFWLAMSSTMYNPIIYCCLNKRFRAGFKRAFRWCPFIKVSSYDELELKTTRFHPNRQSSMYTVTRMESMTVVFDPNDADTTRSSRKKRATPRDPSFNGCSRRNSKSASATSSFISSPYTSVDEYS
# Experiment: [3H]SR142801 competition binding assay
# Conditions: membrane from HEK293 cells transiently expressing recombinant human NK3 receptor; radioligand [3H]SR142801; 75 min at RT
# Method: [^3H]SR142801 Competition Binding Assay
# hNK3 receptor binding experiment were performed using [^3H]SR142801 (Catalog No. TRK1035, specific activity: 74.0 Ci/mmol, Amersham, GE Healthcare UK limited, Buckinghamshire, UK) and membrane isolated from HEK293 cells transiently expressing recombinant human NK3 receptor. After thawing, the membrane homogenates were centrifuged at 48,000×g for 10 min at 4° C., the pellets were resuspended in the 50 mM Tris-HCl, 4 mM MnCl2, 1 μM phosphoramidon, 0.1% BSA binding buffer at pH 7.4 to a final assay concentration of 5 μg protein/well. […] At the end of the incubation, membranes were filtered onto unitfilter (96-well white microplate with bonded GF/C filter preincubated 1 h in 0.3% PEI+0.3% BSA, Packard BioScience, Meriden, Conn.) with a Filtermate 196 harvester (Packard BioScience) and washed 4 times with ice-cold 50 mM Tris-HCl, pH 7.4 buffer. Nonspecific binding was measured in the presence of 10 μM SB222200 for both radioligands. The radioactivity on the filter was counted (5 min) on a Packard Top-count microplate scintillation counter with quenching correction after addition of 45 μl of microscint 40 (Canberra Packard S.A., Zürich, Switzerland) and shaking for 1 h. Inhibition curves were fitted according to the Hill equation: y=100/(1+(x/IC50)^nH), where nH=slope factor using Excel-fit 4 software (Microsoft). IC50 values were derived from the inhibition curve and the affinity constant (Ki) values were calculated using the Cheng-Prussoff equation Ki=IC50/(1+[L]/KD) where [L] is the concentration of radioligand and KD is its dissociation constant at the receptor, derived from the saturation isotherm. All experiments were performed in duplicate and the mean±standard error (SEM) of the individual Ki values was calculated.
row,SMILES,pKi
1,"COc1cc2nc(N3CCC(Cc4ccccc4)(C(=O)NCc4cccnc4)CC3)nc(O)c2cc1OC [Example 2, 4-Benzyl-1-(4-hydroxy-6,7-dimethoxy-quinazolin-2-yl)-piperidine-4-carboxylic acid (pyridin-3-ylmethyl)-amide]",7.18
2,"CC[C@@H](NC(=O)C1(Cc2ccccc2)CCN(c2nc(N)c3cc(OC)c(OC)cc3n2)CC1)c1ccccc1 [Example 51, 1-(4-Amino-6,7-dimethoxy-quinazolin-2-yl)-4-benyzl-piperidine-4-carboxylic acid ((R)-1-phenyl-propyl)-amide]",7.78
3,"COc1cc2nc(N3CCC(Cc4ccccc4)(C(=O)NCc4ccccc4)CC3)nc(NC3CC3)c2cc1OC [Example 15, 4-Benzyl-1-(4-cyclopropylamino-6,7-dimethoxy-quinazolin-2-yl)-piperidine-4-carboxylic acid benzylamide]",7.16
4,"COc1cc2nc(N3CCC(Cc4ccccc4)(C(=O)N4CCCC4c4ccccc4)CC3)nc(N)c2cc1OC (stereo not shown) [Example 47, [1-(4-Amino-6,7-dimethoxy-quinazolin-2-yl)-4-benzyl-piperidin-4-yl]-(2-phenyl-pyrrolidin-1-yl)-methanone]",7.33
5,"COc1cc2nc(N3CCC(Cc4ccccc4)(C(=O)NCc4ccccc4)CC3)nc(N(C)C)c2cc1OC [Example 14, 4-Benzyl-1-(4-dimethylamino-6,7-dimethoxy-quinazolin-2-yl)-piperidine-4-carboxylic acid benzylamide]",7.14
6,"O=C(NCc1ccccc1)C1(Cc2ccccc2)CCN(c2nc(O)c3cc(F)c(Cl)cc3n2)CC1 [Example 16, 4-Benzyl-1-(7-chloro-6-fluoro-4-hydroxy-quinazolin-2-yl)-piperidine-4-carboxylic acid benzylamide]",7.46
7,"COc1cc2nc(N3CCC(Cc4ccccc4)(C(=O)NCc4ccc(OC(F)F)cc4)CC3)nc(N)c2cc1OC [Example 20, 1-(4-Amino-6,7-dimethoxy-quinazolin-2-yl)-4-benzyl-piperidine-4-carboxylic acid 4-difluoromethoxy-benzylamide]",7.33
8,"COc1cc2nc(N3CCC(Cc4ccccc4)(C(=O)NCc4ccco4)CC3)nc(N)c2cc1OC [Example 46, 1-(4-Amino-6,7-dimethoxy-quinazolin-2-yl)-4-benzyl-piperidine-4-carboxylic acid (furan-2-ylmethyl)-amide]",7.36
9,"COc1cc2nc(N3CCC(Cc4ccccc4)(C(=O)NC4Cc5ccccc5C4)CC3)nc(N)c2cc1OC [Example 19, 1-(4-Amino-6,7-dimethoxy-quinazolin-2-yl)-4-benzyl-piperidine-4-carboxylic acid indan-2-ylamie]",7.56
10,"COc1cc2nc(N3CCC(Cc4ccccc4)(C(=O)NC(C)c4ccc(Cl)cc4)CC3)nc(N)c2cc1OC (stereo not shown) [Example 25, 1-(4-Amino-6,7-dimethoxy-quinazolin-2-yl)-4-benzyl-piperidine-4-carboxylic acid [1-(4-chloro-phenyl)-ethyl]-amide]",7.02
11,"COc1cc2nc(N3CCC(Cc4ccccc4)(C(=O)NCc4cccnc4)CC3)nc(N)c2cc1OC [Example 1, 1-(4-Amino-6,7-dimethoxy-quinazolin-2-yl)-4-benzyl-piperidine-4-carboxylic acid (pyridin-3-ylmethyl)-amide]",7.04
12,"COc1cc2nc(N3CCC(Cc4ccccc4)(C(=O)NC4CCCc5ccccc54)CC3)nc(N)c2cc1OC (stereo not shown) [Example 23, 1-(4-Amino-6,7-dimethoxy-quinazolin-2-yl)-4-benzyl-piperidine-4-carboxylic acid (1,2,3,4-tetrahydro-naphthalen-1-yl)-amide]",7.33

# Continued, values first:
row,pKi,SMILES
1,7.94,"O=C(NCc1ccccc1)C1(Cc2ccccc2)CCN(c2nc(O)c3ccc(OC(F)F)cc3n2)CC1 [Example 89, 4-Benzyl-1-(7-difluoromethoxy-4-hydroxy-quinazolin-2-yl)-piperidine-4-carboxylic acid benzylamide]"
2,7.08,"COc1cc2nc(N3CCC(CC4CCC4)(C(=O)NC4Cc5ccccc5C4)CC3)nc(O)c2cc1OC [Example 79, 4-Cyclobutylmethyl-1-(4-hydroxy-6,7-dimethoxy-quinazolin-2-yl)-piperidine-4-carboxylic acid indan-2-ylamide]"
3,8.32,"COc1cc2nc(N3CCC(Cc4ccccc4)(C(=O)N(C)Cc4ccccc4)CC3)nc(O)c2cc1OC [Example 54, 4-Benzyl-1-(4-hydroxy-6,7-dimethoxy-quinazolin-2-yl)-piperidine-4-carboxylic acid benzyl-methyl-amide]"
4,7.41,"COc1cc2nc(N3CCC(Cc4ccccc4)(C(=O)Nc4cnn(C)c4)CC3)nc(O)c2cc1OC [Example 59, 4-Benzyl-1-(4-hydroxy-6,7-dimethoxy-quinazolin-2-yl)-piperidine-4-carboxylic acid (1-methyl-1H-pyrazol-4-yl)-amide]"
5,7.29,"COc1cc2nc(N3CCC(Cc4ccccc4)(C(=O)NC4Cc5cc(Cl)ccc5C4O)CC3)nc(O)c2cc1OC (stereo not shown) [Example 65, 4-Benzyl-1-(4-hydroxy-6,7-dimethoxy-quinazolin-2-yl)-piperidine-4-carboxylic acid (5-chloro-1-hydroxy-indan-2-yl)-amide]"
6,8.04,"COc1cc2nc(N3CCC(Cc4ccccc4)(C(=O)NCc4ccccc4)CC3)nc(O)c2cc1Cl [Example 93, 4-Benzyl-1-(6-chloro-4-hydroxy-7-methoxy-quinazolin-2-yl)-piperidine-4-carboxylic acid benzylamide]"
7,7.20,"COc1cc2nc(N3CCC(Cc4ccccc4)(C(=O)N(C)C4Cc5ccccc5C4)CC3)nc(O)c2cc1OC [Example 57, 4-Benzyl-1-(4-hydroxy-6,7-dimethoxy-quinazolin-2-yl)-piperidine-4-carboxylic acid indan-2-yl-methyl-amide]"
8,8.27,"COc1cc2nc(N3CCC(Cc4ccccc4)(C(=O)NCc4ccccc4)CC3)nc(O)c2cc1OC(C)C [Example 91, 4-Benzyl-1-(4-hydroxy-6-isopropoxy-7-methoxy-quinazolin-2-yl)-piperidine-4-carboxylic acid benzylamide]"
9,7.01,"CC(C)Oc1ccc2nc(N3CCC(Cc4ccccc4)(C(=O)NCc4ccccc4)CC3)nc(O)c2c1 [Example 83, 4-Benzyl-1-(4-hydroxy-6-isopropoxy-quinazolin-2-yl)-piperidine-4-carboxylic acid benzylamide]"
10,8.42,"COc1cc2nc(N3CCC(Cc4ccccc4)(C(=O)NC4CCc5ccccc5C4)CC3)nc(O)c2cc1OC (stereo not shown) [Example 58, 4-Benzyl-1-(4-hydroxy-6,7-dimethoxy-quinazolin-2-yl)-piperidine-4-carboxylic acid (1,2,3,4-tetrahydro-naphthalen-2-yl)-amide]"
11,7.32,"COc1cc2nc(N3CCC(Cc4ccccc4)(C(=O)NCC4CCC4)CC3)nc(O)c2cc1OC [Example 67, 4-Benzyl-1-(4-hydroxy-6,7-dimethoxy-quinazolin-2-yl)-piperidine-4-carboxylic acid cyclobutylmethyl-amide]"
12,7.60,"COc1cc2nc(N3CCC(Cc4ccccc4)(C(=O)NC4CCCC4)CC3)nc(O)c2cc1OC [Example 53, 4-Benzyl-1-(4-hydroxy-6,7-dimethoxy-quinazolin-2-yl)-piperidine-4-carboxylic acid cyclopentylamide]"
13,7.95,"COc1cc2nc(N3CCC(Cc4ccccc4)(C(=O)NC4Cc5ccccc5C4)CC3)nc(O)c2cc1OC [Example 55, 4-Benzyl-1-(4-hydroxy-6,7-dimethoxy-quinazolin-2-yl)-piperidine-4-carboxylic acid indan-2-ylamide]"
14,7.88,"COc1cc2nc(N3CCC(Cc4ccccc4)(C(=O)NCc4ccccc4)CC3)nc(O)c2cc1C [Example 90, 4-Benzyl-1-(4-hydroxy-7-methoxy-6-methyl-quinazolin-2-yl)-piperidine-4-carboxylic acid benzylamide]"
15,7.19,"COc1cc2nc(N3CCC(CC(C)C)(C(=O)NCc4ccccc4)CC3)nc(N)c2cc1OC [Example 70, 1-(4-Amino-6,7-dimethoxy-quinazolin-2-yl)-4-isobutyl-piperidine-4-carboyxlic acid benzylamide]"
16,8.29,"COc1ccc2c(O)nc(N3CCC(Cc4ccccc4)(C(=O)NCc4ccccc4)CC3)nc2c1 [Example 95, 4-Benzyl-1-(4-hydroxy-7-methoxy-quinazolin-2-yl)-piperidine-4-carboxylic acid benzylamide]"
